Results from ChEMBL document CHEMBL1201862, “PubChem BioAssay data set” (2004).
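48-hour exposure; five concentrations; linearly interpolated endpoints. GI50 = concentration required for 50% inhibition of growth.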 Calls of active or inactive are those of the source. No stated cut-off is given here; in the data, active = GI50 up to about 1.1 µM and inactive = higher.

Columns and labels:
Experiment in all cases: NCI-60 cell line screen, 48 h
DLD-1 = tested on: DLD-1
DMS-273 = tested on: DMS-273
KM-20L2 = tested on: KM-20L2
LXFL 529 = tested on: LXFL 529
XF498 = tested on: XF498
HOP-18 = tested on: HOP-18
M19-MEL = tested on: M19-MEL
SNB-78 = tested on: SNB-78
RXF 631 = tested on: RXF 631

| SMILES | GI50 (DLD-1) | GI50 (DMS-273) | GI50 (KM-20L2) | GI50 (LXFL 529) | GI50 (XF498) | GI50 (HOP-18) | GI50 (M19-MEL) | GI50 (SNB-78) | GI50 (RXF 631) |
| --- | --- | --- | --- | --- | --- | --- | --- | --- | --- |
| CC(=O)Nc1ccc(C(=O)NN2C(=O)C(Cl)C2c2ccccc2O)cc1 (stereo not drawn) | > 100 µM (inactive) | 99.1 µM (inactive) | > 100 µM (inactive) | > 100 µM (inactive) | 28.1 µM (inactive) | – | – | – | – |
| C/C=C/C#CC#C/C=C/C=C/C(O)CCO (stereo not drawn) | > 23.1 µM (inactive) | > 23.1 µM (inactive) | > 23.1 µM (inactive) | > 23.1 µM (inactive) | > 23.1 µM (inactive) | > 23.1 µM (inactive) | > 23.1 µM (inactive) | > 23.1 µM (inactive) | – |
| c1ccc2cc(C3NCCc4nc[nH]c43)ccc2c1 (stereo not drawn) | 62.2 µM (inactive) | 69.2 µM (inactive) | 42.7 µM (inactive) | 54.2 µM (inactive) | – | 47 µM (inactive) | 29.9 µM (inactive) | > 100 µM (inactive) | – |
| CCCCOC(=O)C1C(c2ccc(Cl)cc2)NC(c2ccc(Cl)cc2)C(C(=O)OCCCC)S1(=O)=O (stereo not drawn) | > 100 µM (inactive) | > 100 µM (inactive) | > 100 µM (inactive) | 69.8 µM (inactive) | > 100 µM (inactive) | > 100 µM (inactive) | > 100 µM (inactive) | – | – |
| COc1ccc(N2C(=O)C3CC(c4ccc(C)cc4)c4c([nH]c5ccccc45)C3C2=O)cc1 (stereo not drawn) | 38.6 µM (inactive) | 24.1 µM (inactive) | 10.9 µM (inactive) | 28.7 µM (inactive) | 27.2 µM (inactive) | 2.88 µM (inactive) | > 75.9 µM (inactive) | > 51.4 µM (inactive) | – |
| NCC(NC(=O)OCc1ccccc1)C(=O)O (stereo not drawn) | > 50 µM (inactive) | > 50 µM (inactive) | > 50 µM (inactive) | > 50 µM (inactive) | – | > 50 µM (inactive) | > 50 µM (inactive) | > 50 µM (inactive) | – |
| NNC(=O)N/N=C1\C(=O)N(c2ccc(Cl)c(Cl)c2)C(=O)C(=O)C1c1nc2ccccc2s1 (stereo not drawn) | > 100 µM (inactive) | > 100 µM (inactive) | > 100 µM (inactive) | > 100 µM (inactive) | > 100 µM (inactive) | > 100 µM (inactive) | – | > 100 µM (inactive) | – |
| COc1nc2c(c(O)c(C)c(=O)n2OC2OC(COC(C)=O)C(OC(C)=O)C(OC(C)=O)C2OC(C)=O)c(=O)n1C (stereo not drawn) | > 100 µM (inactive) | > 100 µM (inactive) | > 100 µM (inactive) | > 100 µM (inactive) | > 100 µM (inactive) | – | > 100 µM (inactive) | > 100 µM (inactive) | > 100 µM (inactive) |
| Cc1ccccc1N(CCC#N)C1=NN(C(=O)CC(=O)Nc2ccccc2)C(c2ccccc2)C1 (stereo not drawn) | > 100 µM (inactive) | > 100 µM (inactive) | > 100 µM (inactive) | > 100 µM (inactive) | – | > 100 µM (inactive) | > 100 µM (inactive) | 67.9 µM (inactive) | > 100 µM (inactive) |
| CC(=O)OC1CC2(C)OC(Cc3ccccc32)O1 (stereo not drawn) | > 100 µM (inactive) | > 100 µM (inactive) | > 100 µM (inactive) | – | > 100 µM (inactive) | > 100 µM (inactive) | > 100 µM (inactive) | > 100 µM (inactive) | – |
| CN1NC2(CCCCC2)ON=C1c1ccccc1 | > 100 µM (inactive) | – | > 100 µM (inactive) | – | – | > 100 µM (inactive) | – | > 100 µM (inactive) | – |
| Cc1ccc(S(=O)(=O)C(CC(NC=O)S(=O)(=O)c2ccc(C)cc2)NC=O)cc1 (stereo not drawn) | > 100 µM (inactive) | > 100 µM (inactive) | > 100 µM (inactive) | > 100 µM (inactive) | > 100 µM (inactive) | – | > 100 µM (inactive) | > 100 µM (inactive) | > 100 µM (inactive) |
| Cc1ccc(-c2cc(=O)c3cc(C)c(C)c(C(=O)O)c3o2)cc1 | > 100 µM (inactive) | > 100 µM (inactive) | > 100 µM (inactive) | > 100 µM (inactive) | > 100 µM (inactive) | – | > 100 µM (inactive) | > 100 µM (inactive) | > 100 µM (inactive) |
| Cc1cc(=O)n(-c2ccccc2C)c(C)n1 | > 100 µM (inactive) | > 100 µM (inactive) | > 100 µM (inactive) | > 100 µM (inactive) | – | > 100 µM (inactive) | > 100 µM (inactive) | > 100 µM (inactive) | > 100 µM (inactive) |
| C=CCNC(=S)NNC(=O)c1c(C)nc2sccn12 | > 100 µM (inactive) | > 100 µM (inactive) | > 100 µM (inactive) | > 100 µM (inactive) | > 100 µM (inactive) | > 100 µM (inactive) | > 100 µM (inactive) | – | > 100 µM (inactive) |
| Cc1ccc(/C=C2\CCCC(C(NO)c3ccc(C)cc3)C2=NO)cc1 (stereo not drawn) | 28 µM (inactive) | 42 µM (inactive) | 21.7 µM (inactive) | 61.7 µM (inactive) | 43.7 µM (inactive) | 11.4 µM (inactive) | 69.5 µM (inactive) | 60 µM (inactive) | 27.4 µM (inactive) |
| CC12CC(Br)(Br)C(=O)C3C1CCCC32 | 4.63 µM (inactive) | 6.58 µM (inactive) | 17.4 µM (inactive) | 2.38 µM (inactive) | 8.73 µM (inactive) | 9.89 µM (inactive) | 8.34 µM (inactive) | 20 µM (inactive) | – |
| Cc1cc2c(C)nn(Cc3ccccc3Cl)c2c(C#N)c1C | > 100 µM (inactive) | > 100 µM (inactive) | > 100 µM (inactive) | > 100 µM (inactive) | > 100 µM (inactive) | > 100 µM (inactive) | > 100 µM (inactive) | – | > 100 µM (inactive) |
| CCc1ccccc1NC(=O)C1=C(C)NC(C)=C(C(=O)Nc2c(CC)cccc2CC)C1c1ccc2c(c1)OCO2 (stereo not drawn) | 21.9 µM (inactive) | – | 17.6 µM (inactive) | 17 µM (inactive) | 28.4 µM (inactive) | – | 22.1 µM (inactive) | 26.9 µM (inactive) | – |
| N=C(N)NCCCCCCC(=O)NC(O)C(=O)NCCCCNCCCN (stereo not drawn) | 723 µM (inactive) | > 750 µM (inactive) | 600 µM (inactive) | – | 100 µM (inactive) | 710 µM (inactive) | 719 µM (inactive) | > 750 µM (inactive) | – |
| CCOC(C/N=c1/nc(N(C)C)ss1)OCC | 16.4 µM (inactive) | 23 µM (inactive) | 27.7 µM (inactive) | 0.489 µM (active) | 15 µM (inactive) | > 66.4 µM (inactive) | 0.504 µM (active) | 24.6 µM (inactive) | 18.4 µM (inactive) |
| COc1ccc(/C=C2\CCC(C)(CN(C)C)C2=O)cc1 (stereo not drawn) | > 100 µM (inactive) | > 100 µM (inactive) | > 100 µM (inactive) | > 100 µM (inactive) | > 100 µM (inactive) | > 100 µM (inactive) | > 100 µM (inactive) | > 100 µM (inactive) | 40.4 µM (inactive) |
| CCN1C[C@]2(C)CC[C@H](OC)C34C1C([C@H](OC(C)=O)[C@@H]32)[C@@]1(OC)C[C@H](OC)[C@H]2C[C@@H]4[C@@H]1[C@H]2O | > 100 µM (inactive) | > 100 µM (inactive) | > 100 µM (inactive) | > 100 µM (inactive) | > 100 µM (inactive) | > 100 µM (inactive) | > 100 µM (inactive) | > 100 µM (inactive) | – |
| CSc1nnc(C(C#N)C#N)nn1 | > 100 µM (inactive) | > 100 µM (inactive) | > 100 µM (inactive) | > 100 µM (inactive) | > 100 µM (inactive) | – | > 100 µM (inactive) | > 100 µM (inactive) | > 100 µM (inactive) |
| COc1cc2c(c(OC)c1OC)-c1ccc(SC)c(=O)cc1[C@@H](NCc1ccc([N+](=O)[O-])cc1)CC2 | 0.00402 µM (active) | 0.00288 µM (active) | 0.00158 µM (active) | 0.00635 µM (active) | 0.00899 µM (active) | – | 0.00379 µM (active) | 0.00904 µM (active) | – |
| COc1cc2oc(-c3ccccc3)cc(=O)c2c(O)c1C | > 100 µM (inactive) | > 100 µM (inactive) | > 100 µM (inactive) | > 100 µM (inactive) | – | – | > 100 µM (inactive) | > 100 µM (inactive) | – |
